Experiments:
NRVM = assay: PE-mediated cardiomyocyte hypertrophy in NRVM (cell area measurement); format: cell-based, rat; details: nanomolar doses of JQ1 (250 nM), PE 100 μM, 48 hours
Experimental: NRVM were isolated from the hearts of 2 day old Sprague-Dawley rat pups (Charles River) and maintained under standard conditions as described (Haldar et al., 2010). The cells were differentially plated for 1.5 h in cell culture dishes to remove contaminating non-myocytes. Unless otherwise stated, NRVM were plated at a density of 10^5 cells/mL. Cells were initially plated in growth medium (DMEM supplemented with 5% FBS, 100 U/mL penicillin-streptomycin, and 2 mM L-glutamine) for 24-36 hours and maintained in serum-free media thereafter (DMEM supplemented with 0.1% BSA, 1% insulin-transferrin-selenium liquid media supplement (Sigma 13146), 100 U/mL penicillin-streptomycin, and 2 mM L-glutamine). Media was changed every 2-3 days. Prior to stimulation with agonists, NRVM were maintained in serum-free medium for 48-72 hours. For hypertrophic stimulation, NRVM were incubated with JQ1 versus DMSO at indicated concentrations for 6 h followed by stimulation with PE (100 μM) for indicated timepoints.
NRVM were plated on glass coverslips in 6-well dishes at a density of 10^5 cells/mL. After treatments, cells were briefly fixed in PBS containing 2% PFA, permeabilized with PBST/0.1% Triton X-100, and blocked in PBST/5% horse serum. Primary antibody was anti-sarcomeric α-actinin (Sigma A7811) at 1:800. Fluorophore-tagged anti-mouse secondary antibody (α-mouse Alexa 488 green) was used at 1:1000 dilution. Coverslips were mounted on glass slides with mounting media containing DAPI. Quantitation of cardiomyocyte cell surface area was performed on α-actinin-stained cardiomyocytes using fluorescent microscopy and NIH Image J software as previously described (Liang et al., 2001). Analysis consisted of at least 100 cardiomyocytes in 20-30 fields at 400× magnification. This process was replicated in a least three independent experiments, and the data were combined.

[1] = Conscious tail-vein systolic blood pressure in mice; format: in vivo, mouse; details: JQ1 50 mg/kg/day IP, 17 days
Text: For transthoracic echocardiography, mice were anesthetized with 1% inhalational isofluorane and imaged using the Vevo 770 High Resolution Imaging System (Visual Sonics, Inc.) and the RMV-707B 30 MHz probe. Measurements were obtained from M-mode sampling and integrated EKV images taken in the LV short axis at the mid-papillary level (Haldar et al., 2010). Measurements of pressure gradients across the constricted portion of the aorta were obtained by high frequency Doppler as previously described (Liu et al., 2012). Conscious tail-vein systolic blood pressure was measured using the BP2000 Blood Pressure Analysis System (Visitech Systems, Inc.) as recommended by the manufacturer. To allow mice to adapt to the apparatus, we performed daily blood pressure measurements for one week prior to beginning experiments. Treadmill endurance exercise testing was performed on a motorized mouse treadmill (Columbus Instruments) as previously described (Haldar et al., 2012).

[2] = system: mice with myocardial infarction (MI); assay: Large anterior wall myocardial infarction (permanent proximal LAD ligation) model; format: in vivo, mouse; details: 25 or 50 mg/kg/day IP from postoperative day 5
Experimental: Mice were subjected to permanent proximal LAD ligation to create a large anterior wall myocardial infarction (MI). JQ1 or vehicle was begun at the indicated doses (25 mg/kg/day or 50 mg/kg/day, intraperitoneal injection) on postoperative day 5. […] JQ1 attenuates the development of (FIGS. 12B and 15B) LV systolic dysfunction, (FIGS. 12C and 15C) LV cavity dilation, (FIGS. 12D and 15D) LV wall thickening, and (FIGS. 12E and 15E) cardiomegaly after a large anterior wall myocardial infarction. (FIG. 12—N=5 per group; FIG. 15—N=5 in sham group, N=10 in MI group). […] After a myocardial infarction, abnormal remodeling of the heart occurs in distant areas of non-infarcted myocardium, leading to cardiac dilation, enlargement, and contractile dysfunction. This is a very common cause of heart failure. […] Neither this model nor the TAC models involve atherosclerosis. Therefore, the ability to protect the heart in these settings are unrelated to any effects on atherosclerosis.

[3] = system: Neonatal rat ventricular cardiomyocytes (NRVM); assay: Doxorubicin mediated apoptosis in cultured cardiomyocytes (TUNEL); format: cell-based; details: JQ1 250 nM 3 hours, then Doxo 1 μM 24 hours
Experimental: Doxorubicin (Doxo) is an anthracycline compound commonly used as cytotoxic chemotherapy for cancer. Doxo causes dose-dependent toxicity to cardiomyocytes and can cause cardiac enlargement, fibrosis and heart failure in patients. Cardiotoxicity is dose-limiting for anthracyclines such as Doxorubicin and Daunorubicin. […] Neonatal rat ventricular cardiomyocytes (NRVM) were treated with or without JQ1 (250 nM) for 3 hours, followed by treatment±Doxo (1 μM) for another 24 hours. Cells were assayed for apoptosis by TUNEL staining and nuclei were counterstained with DAPI.

[4] = system: primary Rat Aortic Smooth Muscle Cells (RASMC); assay: PDGF-bb induced pathologic smooth muscle cell activation; format: cell-based; details: JQ1 500 nM, PDGF-bb 10 ng/mL
Experimental: All experiments were performed with primary Rat Aortic Smooth Muscle Cells (RASMC), PDGF-bb (10 ng/mL), and JQ1 (500 nM). JQ1 blocks hallmark features of pathologic smooth muscle activation in response to the agonist PDGF-bb such as (FIG. 14A) proliferation (quantified by radiolabeled thymidine incorporation), (FIG. 14B) migration (quantified using a Transwell migration assay), and (FIG. 14C) pathologic gene induction (qRT-PCR shown for Ptgs2/Cox2). These findings support the efficacy of BET bromodomain inhibition against pathologic smooth muscle growth (n=3-6 per group; *p<0.05 vs. vehicle; **p<0.05 vs. PDGF-bb).

## Cc1sc2c(c1C)C(c1ccc(Cl)cc1)=N[C@@H](CC(=O)OC(C)(C)C)c1nnc(C)n1-2 [JQ1]
NRVM
  phenylephrine (PE) mediated cellular hypertrophy (cardiomyocyte area): significantly blocked
[1]
  systemic blood pressure: does not affect
[2]
  development of LV cavity dilation after MI: attenuates
  development of LV systolic dysfunction after MI: attenuates
  development of LV wall thickening after MI: attenuates
  development of cardiomegaly after MI: attenuates
  mortality, myocardial rupture, LV aneurysm formation vs. vehicle control: No excess mortality, myocardial rupture, and LV aneurysm formation
[3]
  Doxo induced cardiotoxicity (apoptosis, TUNEL positive nuclei): blocks
[4]
  PDGF-bb induced migration (Transwell migration assay): blocks
  PDGF-bb induced pathologic gene induction (qRT-PCR, Ptgs2/Cox2): blocks
  PDGF-bb induced proliferation (radiolabeled thymidine incorporation): blocks
